According to US8748369B2, “Use of targeted nitroxide agents in bone healing” (University of Pittsburgh-Of the Commonwealth System of …, priority 2009, dated 2014):
Where a SMILES comes first, the peptide text is derived from it. [ ]: non-standard residue; d: D form. The star is where a group is joined. NH(TEMPO-4-yl) = CC1(C)CC(N*)CC(C)(C)N1[O]; Orn = NCCC[C@H](N)C(=O)O; Cbz = O=C(OCc1ccccc1)*; Boc = CC(C)(C)OC(=O)*

What was measured:
NOD/SCID mice = assay: Proposed: human CD34+ cord blood stem cell seeding into irradiated limbs of NOD/SCID mice; conditions: mouse, in vivo
Source text: Selection and optimization of a GS-nitroxide JP4-039 therapy to enhance human CD34+ cord blood multilineage hematopoietic stem cell progenitor cell seeding into irradiated limbs of NOD/SCID mice that have been prepared by engraftment of human marrow stromal cells.
2. Experiments using the optimal seeding protocol for human KM101 cells into irradiated NOD/SCID mice (anticipated to be those mice receiving MnSOD-PL prior to irradiation, and then injection with KM101-MnSOD/ds-red, supplemented with JP4-039 daily). Mice can then receive intravenous injection of 1×10^5 or 1×10^6 CD34+ LIN− cells from human umbilical cord blood origin. Control cells may be CD34+ LIN+ (differentiated progenitor) cells 10^5 or 10^6 per injection. Groups of 12 mice. These experiments may be carried out in two schedules. • a. […]
In these experiments, mice can be followed and tested at serial time points out to two months after cord blood stem cell transplantation. The percent of human peripheral blood hematopoietic cells can be scored in weekly peripheral blood samples and number of cells forming CFU-GEMM colonies can be tested in explanted bones from sacrificed mice. […]
Experiments in vitro supplementing in co-cultivation culture media the drug JP4-039 daily. […] Stromal cell cultures may be irradiated, cord blood cells added, and cultures scored as above. […]

[1] = tested on: KM101 human marrow stromal cells; assay: Irradiation survival curves of KM101 cells; format: cell-based
Experimental: KM101 cells were incubated in media alone or in JP4-039 (10 μM) for one hour before irradiation or 24 hours after irradiation. The cells were irradiated to doses ranging from 0 to 6 Gy and plated in 4 well plates. Seven days later the cells were stained with crystal violet and colonies of greater than 50 cells counted. Cells incubated in JP4-039 either before or after irradiation were more radioresistant as shown by an increased shoulder of n=2.3±0.2 or 2.2±0.2, respectively compared to n of 1.1±0.1for the KM101 cells (p=0.0309 or 0.0386, respectively).

[2] = log octanal/water (Ko/w) partition coefficient; format: physicochemical
Source text: A practical skin patch is planned for delivery of JP4-039 or other compounds delivered herein. The patch can be administered to a subject before, during or after exposure to radiation, including 24 hr or later after irradiation exposure of the subject. In preliminary studies, we sought to characterize the absorption/penetration of a topically applied representative GS-Nitroxide XJB-5-125 in mouse skin. XJB-5-125 was selected as a potential topical agent based on its ability to inhibit ROS generation, inhibit apoptosis and suppress oxidative damage to mitochondrial lipids. […] The physical properties of a chemical are critical to its ability to penetrate into and through the skin. Two important factors are the log octanal/water (Ko/w) partition coefficient and the molecular weight. For XJB-5-125, the log Ko/w=4.5 and molecular weight is 956. The lipophilicity “rule” is based on the need for a compound to partition out of the lipophilic stratum corneum and into the more hydrophilic epidermis and dermis.

Row | Compound | hematopoietic cell survival and CFU-GEMM numbers (NOD/SCID mice) | n (shoulder on the survival curve) ([1]; 10 μM 24 hours after irradiation) | change in Do ([1]; 10 μM before or after irradiation) | n (shoulder on the survival curve) ([1]; 10 μM one hour before irradiation) | log Ko/w [2]
1 | CC(C)C[C@@H](/C=C/CC(=O)NC1CC(C)(C)N([O])C(C)(C)C1)NC(=O)OC(C)(C)C [JP4-039, (S,E)-5-(tert-Butoxycarbonylamino)-7-methyloct-3-enoic acid-TEMPO] | further enhance hematopoietic cell survival and increase CFU-GEMM in numbers | 2.2±0.2 | no significant change | 2.3±0.2 | –
2 | CC(C)C[C@H](NC(=O)OC(C)(C)C)C(=O)N[C@H](Cc1ccccc1)C(=O)N1CCC[C@H]1C(=O)N[C@H](C(=O)N[C@@H](CCCNC(=O)OCc1ccccc1)C(=O)NC1CC(C)(C)N([O])C(C)(C)C1)C(C)C [XJB-5-125] (Boc-L[dF]PV[Orn](Cbz)-{NH(TEMPO-4-yl)}) | – | – | – | – | 4.5
